This is an account of results in patent US20240115589A1, “PHARMACEUTICAL COMPOSITION FOR PREVENTING CYTOKINE STORM” (KINKI UNIVERSITY, priority 2021, published 2024).

Assay [1] relates to IL-6 mRNA. Briefly: LPS-stimulated IL-6 mRNA expression in mouse B cells (real time PCR). The format is cell-based. Particulars: 10 μM compound 1 day, then 10 μg/mL LPS 4 h, vs LPS-treated group. The method, then: (§1) Mouse B cells were pre-cultured with RPMI1640 medium for 1 day. After incubation, mouse B cells were treated with 10 μM mangiferin 8a, 10 μM norathyriol, 1 μM M9, and 1 μM M14 for 1 day. Then, 10 μg/mL LPS was added to mouse B cells and cultured for 4 h. After incubation, cells were collected, RNA was extracted, and TNFα mRNA expression was measured by real time PCR.
The inhibitory effect of compounds on IL-6 mRNA expression involved in cytokine storm was examined using mouse B cells. The experimental procedure is the same as in Example 1.
(§2) For controls, only 0.5% DMSO (diluted in PBS) used to dissolve the compounds was added. 10 μg/mL LPS administered is called the LPS-treated group, LPS and mangiferin 8a administered in combination is called the mangiferin 8a-treated group, LPS and norathyriol administered in combination is called the norathyriol group, LPS and M9 administered in combination is called the M9-treated group, LPS and M14 administered in combination is called the M14-treated group, respectively.
(In general: Real-time PCR tracks product formation cycle by cycle.)

Assay [2] concerns TNFα mRNA. Briefly: LPS-stimulated TNFα mRNA expression in mouse B cells (real time PCR). Particulars: 10 μM compound 1 day, then 10 μg/mL LPS 4 h, vs LPS-treated group. The format is cell-based. On the procedure: The inhibitory effect of compounds on TNFα mRNA expression involved in cytokine storm was examined using mouse B cells.
as §1, §2

A further assay has as its system male C57BL/6J. Briefly: Survival rate of mice treated with compound and LPS (lethality in cytokine storm). The class given is in vivo. Particulars: C57BL/6J mice, 50 mg/kg oral, 25 mg/kg LPS i.p. 5 min later, day 2; compared to LPS group. The method, then: Six-week-old male C57BL/6J (SHIMIZU Laboratory Supplies Co., Ltd.) were orally administered 50 mg/kg mangiferin 8a, 100 mg/kg norathyriol, 50 mg/kg M9, and 50 mg/kg M14. Five minutes later, 25 mg/kg LPS was administered intraperitoneally. The day of administration was set as day 0, and the survival rate was measured on day 2.
Those not receiving the compound and LPS are referred to as the control group, those receiving 25 mg/kg LPS are referred to as the LPS group, those receiving 50 mg/kg mangiferin 8a and 25 mg/kg LPS are referred to as the mangiferin 8a-treated group, those receiving 100 mg/kg norathyriol and 25 mg/kg LPS are referred to as the norathyriol-treated group, those receiving 50 mg/kg M9 and 25 mg/kg LPS are referred to as the M9-treated group, and those receiving 50 mg/kg M14 and 25 mg/kg LPS are referred to as the M14-treated group.
Referring to FIG. 9, the horizontal axis indicates compound treatment, and the vertical axis indicates survival rate (%).

Assay [3] relates to IL-6. The assay can be described thus: LPS-stimulated IL-6 production in mouse macrophages (ELISA). Particulars: culture supernatant, 10 μM compound 1 day, then 10 μg/mL LPS 2 days, control 13.13, LPS alone 321.13 pg/mL. The format is cell-based. The method, then:
The inhibitory effect of compounds on IL-6 production involved in cytokine storm was examined using mouse macrophages.
Mouse macrophages were pre-cultured with RPMI1640 medium for 1 day. After incubation, mouse macrophages were treated with 10 μM mangiferin 8a, 10 μM norathyriol, 1 μM M9, and 1 μM M14 for 1 day. Then, 10 μg/mL LPS was added to mouse macrophages and cultured for 2 days. After incubation, the culture supernatant was collected and IL-6 production was determined by enzyme-linked immunosorbent assay (ELISA). This measurement was performed using a mouse IL-6 ELISA kit (R&D).
A general note: ELISA stands for enzyme-linked immunosorbent assay.

For assay [4], the system named is TNFα. The assay can be described thus: LPS-stimulated TNFα production in mouse macrophages (ELISA). The format is cell-based. The settings on record: culture supernatant, 10 μM compound 1 day, then 10 μg/mL LPS 2 days, control 24.11, LPS alone 421.13 pg/mL. On the procedure:
The inhibitory effect of compounds on TNFα production involved in cytokine storm was examined using mouse macrophages.
Mouse macrophages were pre-cultured with RPMI1640 medium for 1 day. After incubation, mouse macrophages were treated with 10 μM mangiferin 8a, 10 μM norathyriol, 1 μM M9, and 1 μM M14 for 1 day. Then, 10 μg/mL LPS was added to mouse macrophages and cultured for 2 days. After incubation, the culture supernatant was collected and TNFα production was determined by enzyme-linked immunosorbent assay (ELISA). This measurement was performed using a mouse TNFα ELISA kit (R&D).

Assay [5] has as its system IL-6 mRNA. Briefly: LPS-stimulated IL-6 mRNA expression in mouse macrophages (real time PCR). The class given is cell-based. Particulars: 10 μM compound 1 day, then 10 μg/mL LPS 4 h, vs LPS-treated group. On the procedure:
(§3) Mouse macrophages were pre-cultured with RPMI1640 medium for 1 day. After incubation, mouse macrophages were treated with 10 μM mangiferin 8a, 10 μM norathyriol, 1 μM M9, and 1 μM M14 for 1 day. Then, 10 μg/mL LPS was added to mouse macrophages and cultured for 4 h. After incubation, cells were collected, RNA was extracted, and TNFα mRNA expression was measured by real time PCR.
The inhibitory effect of compounds on IL-6 mRNA expression involved in cytokine storm was examined using mouse macrophages.
The experimental procedure is the same as in Example 3. […] For controls, only 0.5% DMSO (diluted in PBS) used to dissolve the compounds was added. 10 μg/mL LPS administered is called the LPS-treated group, LPS and mangiferin 8a administered in combination is called the mangiferin 8a-treated group, LPS and norathyriol administered in combination is called the norathyriol group, LPS and M9 administered in combination is called the M9-treated group, LPS and M14 administered in combination is called the M14-treated group, respectively.

Assay [6] deals with IL-6. The assay can be described thus: LPS-stimulated IL-6 production in mouse B cells (ELISA). Particulars: culture supernatant, 10 μM compound 1 day, then 10 μg/mL LPS 2 days, control 9.46, LPS alone 246.13 pg/mL. The class given is cell-based. On the procedure:
The inhibitory effect of compounds on IL-6 production involved in cytokine storm was examined using mouse B cells.
Mouse B cells were pre-cultured with RPMI1640 medium for 1 day. After incubation, mouse B cells were treated with 10 μM mangiferin 8a, 10 μM norathyriol, 1 μM M9, and 1 μM M14 for 1 day. Then, 10 μg/mL LPS was added to mouse B cells and cultured for 2 days. After incubation, the culture supernatant was collected and IL-6 production was determined by enzyme-linked immunosorbent assay (ELISA). This measurement was performed using a mouse IL-6 ELISAkit (R&D).

Assay [7] has as its system TNFα mRNA. The assay can be described thus: LPS-stimulated TNFα mRNA expression in mouse macrophages (real time PCR). The format is cell-based. The settings on record: 10 μM compound 1 day, then 10 μg/mL LPS 4 h, vs LPS-treated group. The method, then:
The inhibitory effect of compounds on TNFα mRNA expression involved in cytokine storm was examined using mouse macrophages.
as §3, §2

The subject of assay [8] is TNFα. Briefly: LPS-stimulated TNFα production in mouse B cells (ELISA). The class given is cell-based. The settings on record: culture supernatant, 10 μM compound 1 day, then 10 μg/mL LPS 2 days, control 15.13, LPS alone 296.31 pg/mL. The method, then: The inhibitory effect of compounds on TNFα production involved in cytokine storm was examined using mouse B cells.
Mouse B cells were pre-cultured with RPMI1640 medium for 1 day. After incubation, mouse B cells were treated with 10 μM mangiferin 8a, 10 μM norathyriol, 1 μM M9, and 1 μM M14 for 1 day. Then, 10 μg/mL LPS was added to mouse B cells and cultured for 2 days. After incubation, the culture supernatant was collected and TNFα production was determined by enzyme-linked immunosorbent assay (ELISA). This measurement was performed using a mouse TNFα ELISA kit (R&D).

In the case of `CCC(=O)OC[C@H]1O[C@@H](c2c(O)cc3oc4cc(O)c(O)cc4c(=O)c3c2OC(=O)CC)[C@H](OC(=O)CC)[C@@H](OC(=O)CC)[C@@H]1OC(=O)CC` [mangiferin 8a, 1,2′,3′,4′,6′-penta-O-propionylmangiferin], the “LPS-induced IL-6 mRNA expression (ratio to GAPDH mRNA)” value with IL-6 mRNA [1] and with IL-6 mRNA [5] was “decrease in LPS-induced IL-6 mRNA expression” throughout. The “LPS-induced TNFα mRNA expression (ratio to GAPDH mRNA)” value with TNFα mRNA [2] and with TNFα mRNA [7] was “decrease in LPS-induced TNFα mRNA expression” each time. The survival rate entry with male C57BL/6J was “significantly reduced the decrease in survival”. Moreover, the IL-6 production in the assay on IL-6 [3] is recorded as 69.16 pg/mL; with IL-6 [6], 54.13 pg/mL. The TNFα production is on record as 65.13 pg/mL in the assay with TNFα [4] and 59.31 pg/mL in the assay on TNFα [8].
